Like-named read-outs stand apart in the source and are kept apart here. Positions of bridges follow the written chain, without caps; N, C: chain ends. Non-standard residues stand in square brackets, D forms with d. Residues, ends and D or L forms follow the SMILES beside them. Lys(N3) = [N-]=[N+]=NCCCC[C@H](N)C(=O)O; 2Nal = N[C@@H](Cc1ccc2ccccc2c1)C(=O)O; Lys(Me2) = CN(C)CCCC[C@H](N)C(=O)O; R8 = C=CCCCCCC[C@@](C)(N)C(=O)O; Cba = N[C@@H](CC1CCC1)C(=O)O; S5 = C=CCCC[C@](C)(N)C(=O)O; Dap = NC[C@H](N)C(=O)O; Aib = CC(C)(N)C(=O)O; Ahx = NCCCCCC(=O)O; βAla = NCCC(=O)O
What was measured:
[1] = Lactate dehydrogenase (LDH) release assay; type: cell-based
Description: (§1) HCT116 cells were stably transfected with a p53 responsive β-lactamase reporter and expanded in McCoy’s 5 A Medium with 10% fetal bovine serum (FBS), Blasticidin, and Penicillin/Streptomycin and then transferred to 1.5 ml freezing vials and stored under liquid nitrogen in growth media containing 5% DMSO. […] The cells were then seeded into a 384-well plate at a density of 8000 cells per well. […] The final working concentration of DMSO was 0.5%. Lactate dehydrogenase release was detected using the CytoTox-ONE Homogenous Membrane Integrity Assay Kit (Promega), as per the manufacturer’s instructions. Measurements were carried out using the Tecan plate reader. […] Measurements were taken a minimum of three times (biological replicates) and values are reported as geometric means of the replicates.

[2] = test system: HCT116 cells; assay: Lactate dehydrogenase (LDH) release assay; type: cell-based
Description: as §1

[3] = 0% FBS 4Hr, read-out: LDH: Cytotoxicity assay EC50
[4] = 10% FBS 16Hr, read-out: LDH: Cytotoxicity assay EC50

SMILES	EC50 ([1]; LDH: Cytotoxicity assay EC50) [µM]	LDH: Cytotoxicity assay % Effect [2] [%]	other results
CC(=O)N[C@H](C(=O)N[C@@H](CO)C(=O)N[C@@H](Cc1ccccc1)C(=O)N[C@]1(C)CCCCCCC=CCCC[C@@](C)(C(=O)N[C@@H](CCC(=O)O)C(N)=O)NC(=O)[C@H](CC2CCC2)NC(=O)[C@H](CC(C)C)NC(=O)[C@H](C)NC(=O)[C@H](Cc2c[nH]c3ccccc23)NC(=O)[C@H](Cc2ccc(O)cc2)NC(=O)[C@H](CCC(=O)O)NC1=O)[C@@H](C)O [MP-140] (Ac-TSF[R8]EYWAL[Cba][S5]E-NH2; staple 4-11)	> 50	11.41	
CC(=O)N[C@@H](CCN)C(=O)NCCCCCC(=O)N[C@H](C(=O)N[C@@H](CO)C(=O)N[C@@H](Cc1ccccc1)C(=O)N[C@]1(C)CCCCCCC=CCCC[C@@](C)(C(=O)N[C@@H](CCC(=O)O)C(=O)N[C@@H](CC(N)=O)C(=O)N[C@@H](Cc2ccccc2)C(N)=O)NC(=O)[C@H](CC(C)C)NC(=O)[C@H](CC(C)C)NC(=O)[C@H](C)NC(=O)[C@H](Cc2c[nH]c3ccccc23)NC(=O)[C@H](Cc2ccc(O)cc2)NC(=O)[C@H](CCC(=O)O)NC1=O)[C@@H](C)O [MP-666]	> 50	15.43	
CC(=O)N[C@@H](CCCCN=[N+]=[N-])C(=O)NCCC(=O)N[C@@H](CC(C)C)C(=O)N[C@H](C(=O)N[C@@H](Cc1ccccc1)C(=O)N[C@]1(C)CCCCCCC=CCCC[C@@](C)(C(=O)N[C@@H](C)C(=O)NC(C)(C)C(=O)NC(C)(C)C(=O)NC(C)(C)C(=O)NC(C)(C)C(=O)NC(C)(C)C(N)=O)NC(=O)[C@H](CC2CCC2)NC(=O)[C@H](CCC(N)=O)NC(=O)[C@H](C)NC(=O)[C@H](Cc2c[nH]c3ccccc23)NC(=O)[C@H](Cc2ccc(O)cc2)NC(=O)[C@H](CCC(=O)O)NC1=O)[C@@H](C)O [MP-413] (Ac-[Lys(N3)][βAla]LTF[R8]EYWAQ[Cba][S5]A[Aib][Aib][Aib][Aib][Aib]-NH2; staple 6-13)			EC50 [1, 3]: > 50.7 µM; EC50 [1, 4]: > 50.7 µM; LDH: Cytotoxicity assay % Effect ([2]; 0% FBS 4Hr): 8.4%; LDH: Cytotoxicity assay % Effect ([2]; 10% FBS 16Hr): 10.36%
CCCC[C@@H]1NC(=O)[C@H](CC(C)C)NC(=O)[C@H](C)NC(=O)[C@H](Cc2c[nH]c3ccccc23)NC(=O)[C@H](Cc2ccc(O)cc2)NC(=O)[C@H](CCC(=O)O)NC(=O)[C@](C)(NC(=O)[C@H](Cc2ccccc2)NC(=O)[C@H](CO)NC(=O)[C@@H](NC(C)=O)[C@@H](C)O)CCCCCCC=CCCC[C@@](C)(C(N)=O)NC1=O [MP-151]	> 50	9.894	
CC(=O)N[C@@H](CCCCN=[N+]=[N-])C(=O)NCCC(=O)N[C@@H](CC(C)C)C(=O)N[C@H](C(=O)N[C@@H](Cc1ccccc1)C(=O)N[C@]1(C)CCCCCCC=CCCC[C@@](C)(C(=O)N[C@@H](CO)C(=O)N[C@@H](C)C(=O)N[C@@H](C)C(N)=O)NC(=O)[C@H](CC2CCC2)NC(=O)[C@H](CCC(N)=O)NC(=O)[C@H](C)N(C)C(=O)[C@H](Cc2c[nH]c3ccccc23)NC(=O)[C@H](Cc2ccc(O)cc2)NC(=O)[C@H](CCC(=O)O)NC1=O)[C@@H](C)O [MP-498]			EC50 ([1]; LDH: Cytotoxicity assay: EC50): > 50 µM; LDH: Cytotoxicity assay: % Effect [2]: 7.026%
CC(=O)N[C@@H](CCCCN=[N+]=[N-])C(=O)NCCC(=O)N[C@@H](CC(C)C)C(=O)N[C@@H](CCC(=O)O)C(=O)N[C@@H](Cc1ccccc1)C(=O)N[C@@]1(C)CCCCCCC=CCCC[C@@](C)(C(=O)N[C@@H](CO)C(=O)N[C@@H](C)C(=O)N[C@@H](C)C(N)=O)NC(=O)[C@H](CC2CCC2)NC(=O)[C@H](CCC(N)=O)NC(=O)[C@H](C)NC(=O)[C@H](Cc2c[nH]c3ccccc23)NC(=O)[C@H](Cc2ccc(O)cc2)NC(=O)[C@H](CCC(=O)O)NC1=O [MP-630]			EC50 ([1]; LDH: Cytotoxicity assay: EC50): > 50.7 µM
CC(=O)N[C@@H](CN)C(=O)NCCCCCC(=O)N[C@H](C(=O)N[C@@H](CO)C(=O)N[C@@H](Cc1ccccc1)C(=O)N[C@]1(C)CCCCCCC=CCCC[C@@](C)(C(=O)N[C@@H](CCC(=O)O)C(=O)N[C@@H](CC(N)=O)C(=O)N[C@@H](Cc2ccccc2)C(N)=O)NC(=O)[C@H](CC(C)C)NC(=O)[C@H](CC(C)C)NC(=O)[C@H](C)NC(=O)[C@H](Cc2c[nH]c3ccccc23)NC(=O)[C@H](Cc2ccc(O)cc2)NC(=O)[C@H](CCC(=O)O)NC1=O)[C@@H](C)O [MP-665]	> 50	4.993	
CC(=O)N[C@@H](CCCCN=[N+]=[N-])C(=O)NCCC(=O)N[C@@H](CC(C)C)C(=O)N[C@H](C(=O)N[C@@H](Cc1ccccc1)C(=O)N[C@]1(C)CCCCCCC=CCCC[C@@](C)(C(=O)N[C@@H](CO)C(=O)N[C@@H](C)C(=O)N[C@@H](C)C(N)=O)NC(=O)[C@H](CC2CCC2)NC(=O)[C@H](CCC(N)=O)NC(=O)[C@H](C)NC(=O)[C@H](Cc2c[nH]c3cc(Cl)ccc23)NC(=O)[C@H](Cc2ccc(CP(=O)(O)O)cc2)NC(=O)[C@H](CCC(=O)O)NC1=O)[C@@H](C)O [MP-891]			EC50 ([1]; 0% FBS 4Hr, read-out: LDH: Cytotoxicity assay: EC50): > 50.6 µM; LDH: Cytotoxicity assay: % Effect ([2]; 0% FBS 4Hr): 3.299%
CC(=O)N[C@@H](CCCCN)C(=O)N[C@@H](CCCCN)C(=O)N[C@H](C(=O)N[C@@H](CO)C(=O)N[C@@H](Cc1ccccc1)C(=O)N[C@]1(C)CCCCCCC=CCCC[C@@](C)(C(=O)N[C@@H](CCC(=O)O)C(N)=O)NC(=O)[C@H](CC2CCC2)NC(=O)[C@H](CC(C)C)NC(=O)[C@H](C)NC(=O)[C@H](Cc2c[nH]c3ccccc23)NC(=O)[C@H](Cc2ccc(O)cc2)NC(=O)[C@H](CCC(=O)O)NC1=O)[C@@H](C)O [MP-157] (Ac-KKTSF[R8]EYWAL[Cba][S5]E-NH2; staple 6-13)	> 50	5.957	
CC(=O)N[C@@H](CCCCN)C(=O)N[C@@H](CCCCN)C(=O)N[C@H](C(=O)N[C@@H](CO)C(=O)N[C@@H](Cc1ccc2ccccc2c1)C(=O)N[C@]1(C)CCCCCCC=CCCC[C@@](C)(C(=O)N[C@@H](CCC(=O)O)C(N)=O)NC(=O)[C@H](CC2CCC2)NC(=O)[C@H](CC(C)C)NC(=O)[C@H](C)NC(=O)[C@H](Cc2c[nH]c3ccccc23)NC(=O)[C@H](Cc2ccc(O)cc2)NC(=O)[C@H](CCC(=O)O)NC1=O)[C@@H](C)O [MP-158] (Ac-KKTS[2Nal][R8]EYWAL[Cba][S5]E-NH2; staple 6-13)	> 50	9.197	
CC(=O)N[C@@H](CCCCN)C(=O)N[C@@H](CCCCN)C(=O)N[C@H](C(=O)N[C@@H](CO)C(=O)N[C@@H](Cc1ccccc1)C(=O)N[C@]1(C)CCCCCCC=CCCC[C@@](C)(C(N)=O)NC(=O)[C@H](CC2CCC2)NC(=O)[C@H](CC(C)C)NC(=O)[C@H](C)NC(=O)[C@H](Cc2c[nH]c3ccccc23)NC(=O)[C@H](Cc2ccc(O)cc2)NC(=O)[C@H](CCC(=O)O)NC1=O)[C@@H](C)O [MP-087] (Ac-KKTSF[R8]EYWAL[Cba][S5]-NH2; staple 6-13)	35.2	23.77	
CC(=O)N[C@@H](CCCCN(C)C)C(=O)N[C@@H](CCCCN(C)C)C(=O)NCCCCCC(=O)N[C@H](C(=O)N[C@@H](CO)C(=O)N[C@@H](Cc1ccccc1)C(=O)N[C@]1(C)CCCCCCC=CCCC[C@@](C)(C(=O)N[C@@H](CCC(=O)O)C(=O)N[C@@H](CC(N)=O)C(=O)N[C@@H](Cc2ccccc2)C(N)=O)NC(=O)[C@H](CC(C)C)NC(=O)[C@H](CC(C)C)NC(=O)[C@H](C)NC(=O)[C@H](Cc2c[nH]c3ccccc23)NC(=O)[C@H](Cc2ccc(O)cc2)NC(=O)[C@H](CCC(=O)O)NC1=O)[C@@H](C)O [MP-2042] (Ac-[Lys(Me2)][Lys(Me2)][Ahx]TSF[R8]EYWALL[S5]ENF-NH2; staple 7-14)	> 50	5.569	
CC(=O)N[C@@H](CN)C(=O)N[C@@H](CN)C(=O)NCCCCCC(=O)N[C@H](C(=O)N[C@@H](CO)C(=O)N[C@@H](Cc1ccccc1)C(=O)N[C@]1(C)CCCCCCC=CCCC[C@@](C)(C(=O)N[C@@H](CCC(=O)O)C(=O)N[C@@H](CC(N)=O)C(=O)N[C@@H](Cc2ccccc2)C(N)=O)NC(=O)[C@H](CC(C)C)NC(=O)[C@H](CC(C)C)NC(=O)[C@H](C)NC(=O)[C@H](Cc2c[nH]c3ccccc23)NC(=O)[C@H](Cc2ccc(O)cc2)NC(=O)[C@H](CCC(=O)O)NC1=O)[C@@H](C)O [MP-663] (Ac-[Dap][Dap][Ahx]TSF[R8]EYWALL[S5]ENF-NH2; staple 7-14)	> 50		
CC(C)C[C@H](NC(=O)CCNC(=O)[C@@H](N)CCCCN=[N+]=[N-])C(=O)N[C@H](C(=O)N[C@@H](Cc1ccccc1)C(=O)N[C@]1(C)CCCCCCC=CCCC[C@@](C)(C(=O)N[C@@H](CO)C(=O)N[C@@H](C)C(=O)N[C@@H](C)C(N)=O)NC(=O)[C@H](CC2CCC2)NC(=O)[C@H](CCC(N)=O)NC(=O)[C@H](C)NC(=O)[C@H](Cc2c[nH]c3ccccc23)NC(=O)[C@H](Cc2ccc(O)cc2)NC(=O)[C@H](CCC(=O)O)NC1=O)[C@@H](C)O [MP-618]			EC50 ([1]; LDH: Cytotoxicity assay: EC50): > 50.7 µM
CC(=O)N[C@H](CC(C)C)C(=O)N[C@H](C(=O)N[C@@H](Cc1ccccc1)C(=O)N[C@]1(C)CCCCCCC=CCCC[C@@](C)(C(=O)N[C@@H](CO)C(=O)N[C@@H](C)C(=O)N[C@H](C)C(N)=O)NC(=O)[C@H](CC2CCC2)NC(=O)[C@H](CC(C)C)NC(=O)[C@H](CCC(N)=O)NC(=O)[C@H](Cc2c[nH]c3ccccc23)NC(=O)[C@H](Cc2ccc(O)cc2)NC(=O)[C@H](CCC(=O)O)NC1=O)[C@@H](C)O [MP-7202]			EC50 ([1]; LDH: Cytotoxicity assay: EC50): > 50.6 µM
CC(=O)N[C@@H](CCCCN=[N+]=[N-])C(=O)NCCC(=O)N[C@@H](CC(C)C)C(=O)N[C@H](C(=O)N[C@@H](Cc1ccccc1)C(=O)N[C@]1(C)CCCCC#CC#CCCC[C@@](C)(C(=O)N[C@@H](C)C(=O)N[C@@H](C)C(=O)NC(C)(CCC(=O)O)C(=O)N[C@@H](C)C(=O)N[C@@H](C)C(=O)N[C@H](C)C(N)=O)NC(=O)[C@H](CC2CCC2)NC(=O)[C@H](CCC(N)=O)NC(=O)[C@H](C)NC(=O)[C@H](Cc2c[nH]c3ccccc23)NC(=O)[C@H](Cc2ccc(O)cc2)NC(=O)[C@H](CCC(=O)O)NC1=O)[C@@H](C)O (stereo partly drawn) [MP-467, Ac-K(N3)-(betaAla)-LTF(X)EYWAQ(Cba)(X)AA(a-methly-Glu)AA(DAla)-NH2]			EC50 [1, 3]: > 50.7 µM; EC50 [1, 4]: > 50.7 µM

Reference: article PMC10786919, “Design-rules for stapled peptides with in vivo activity and their application to Mdm2/X antagonists” (Nature Communications, 2024)
